One assay has as its target COX-1 (Homo sapiens, UniProt P23219). Type of assay: biochemical. As to conditions: for COX-1 inhibition, result in words: initial screen at 25 μM / relevant concentration range; for IC50: read-out: IC50 COX-1, radioactivity assay, pre-incubation 17 min at 25 °C and 3 min at 37 °C, 50 μM [14C]-AA for 30 sec, average of at least two independent experiments.
For the next assay, the target named is T1, COX-2 (Homo sapiens, UniProt P35354).
T1 sequence (P35354 18-604): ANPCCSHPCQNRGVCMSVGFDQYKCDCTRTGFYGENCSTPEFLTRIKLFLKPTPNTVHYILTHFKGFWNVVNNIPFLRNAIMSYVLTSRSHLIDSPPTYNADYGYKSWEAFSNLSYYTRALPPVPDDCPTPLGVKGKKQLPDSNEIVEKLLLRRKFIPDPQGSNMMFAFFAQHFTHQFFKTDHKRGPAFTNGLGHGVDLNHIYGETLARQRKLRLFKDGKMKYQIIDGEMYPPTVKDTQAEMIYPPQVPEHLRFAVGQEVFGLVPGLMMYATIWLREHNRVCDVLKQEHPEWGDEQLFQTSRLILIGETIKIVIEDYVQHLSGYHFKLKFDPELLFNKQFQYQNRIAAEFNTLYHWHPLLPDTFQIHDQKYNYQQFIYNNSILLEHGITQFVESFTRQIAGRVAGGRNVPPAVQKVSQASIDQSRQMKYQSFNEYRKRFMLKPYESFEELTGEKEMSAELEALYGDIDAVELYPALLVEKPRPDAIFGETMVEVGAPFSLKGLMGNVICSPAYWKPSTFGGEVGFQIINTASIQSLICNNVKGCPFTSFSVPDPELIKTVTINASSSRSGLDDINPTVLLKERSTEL
It counts as biochemical. As to conditions: for COX-2 inhibition, result in words: initial screen at 25 μM / relevant concentration range; for IC50: read-out: IC50 COX-2, radioactivity assay, pre-incubation 17 min at 25 °C and 3 min at 37 °C, 50 μM [14C]-AA for 30 sec, average of at least two independent experiments.

For orientation: IC50 means the concentration that inhibits the measured activity by half.

Chain of COX-1 (P23219 24-599): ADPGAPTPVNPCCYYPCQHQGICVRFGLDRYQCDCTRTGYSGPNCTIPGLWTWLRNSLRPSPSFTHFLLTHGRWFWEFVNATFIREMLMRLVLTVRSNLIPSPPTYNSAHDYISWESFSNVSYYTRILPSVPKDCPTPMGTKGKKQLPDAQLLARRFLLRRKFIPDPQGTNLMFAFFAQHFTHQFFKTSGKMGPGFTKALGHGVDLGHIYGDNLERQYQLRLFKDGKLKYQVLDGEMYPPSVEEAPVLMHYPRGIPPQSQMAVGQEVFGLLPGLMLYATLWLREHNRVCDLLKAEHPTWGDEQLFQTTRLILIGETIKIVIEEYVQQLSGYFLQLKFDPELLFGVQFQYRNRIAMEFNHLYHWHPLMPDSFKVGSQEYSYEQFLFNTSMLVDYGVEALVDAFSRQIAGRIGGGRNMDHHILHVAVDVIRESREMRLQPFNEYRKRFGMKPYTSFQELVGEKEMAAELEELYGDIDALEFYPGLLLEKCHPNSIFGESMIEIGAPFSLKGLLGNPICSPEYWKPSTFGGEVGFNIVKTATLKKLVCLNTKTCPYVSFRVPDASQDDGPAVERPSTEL

Take “1-(1-Carboxy-1,2-dicarba-closo-dodecaboran(12)yl)-5-methoxy-2-methyl-1H-indole-3-acetic acid [Compound 4o]”: on COX-1, the “COX-1 inhibition, result in words” value is listed as “not COX-1” and the IC50 was greater than 25 µM. On COX-2, the “COX-2 inhibition, result in words” value is given as “exclusively inhibited COX-2” and the IC50 worked out at 3.68 µM.
As for “1-(1-Carboxy-1,2-dicarba-closo-dodecaboran(12)yl)-5-methoxy-2-methyl-1H-indole-3-acetic acid benzyl ester [Compound 2o]”, on COX-1, the “COX-1 inhibition, result in words” value was “also inhibited COX-1” and the IC50 came out at 15.1 µM. Further, at COX-2, the half-inhibitory concentration (IC50) turned out to be 11.6 µM.
As to `COC(=O)Cc1c(C)n(C(=O)c2ccc(Cl)cc2)c2ccc(OC)cc12` [Compound 1i, Indomethacin methyl ester, reference compound], the IC50 at COX-1 is greater than 25 µM.
In the case of “1-(1-Carboxy-1,2-dicarba-closo-dodecaboran(12)yl)-5-methoxy-2-methyl-1H-indole-3-acetic acid methyl ester [Compound 1o]”, on COX-1, the “COX-1 inhibition, result in words” value is “also inhibited COX-1” and the 50% inhibitory concentration (IC50) turned out to be 12.8 µM. For the same compound, the IC50 on COX-2 turned out to be 0.084 µM.
Regarding “1-(1-Carboxy-1,2-dicarba-closo-dodecaboran(12)yl)-5-methoxy-2-methyl-1H-indole-3-acetic acid tert-butyl ester [Compound 3o]”, on COX-1, the “COX-1 inhibition, result in words” value is reported as “not COX-1” and the IC50 was greater than 25 µM. Moreover, on COX-2, the “COX-2 inhibition, result in words” value is “exclusively inhibited COX-2” and the half-inhibitory concentration (IC50) is 1.41 µM.

The values are drawn from article PMC3408963 (Bioorganic & medicinal chemistry, 2012).
